# In patent US20090203685A1, “ANTI-PROLIFERATIVE COMPOUNDS FROM A 3-ARYL-COUMARINE OR 3-ARYL-QUINOLIN-2-ONE AND USES THEREOF” (EOS (ETHICAL ONCOLOGY SCIENCE) S.P.A., priority 2006, published 2009):
# Tests used:
# [1] = system: U937 cells; test: Proliferation test ViaLight HS, U937 cells (Example 8); assay type: cell-based, human; details: Homo sapiens, U-937, 72 h, 72 h incubation; range = multiple experiments, otherwise individual experiments
# Method: (§1) 2C Proliferation test ViaLight® HS High Sensitivity Cytotoxicity and Cell Proliferation BioAssay Kit
# (§2) This protocol allows the determination of the cytostatic and cytotoxic activities of compounds to be tested on mammalian cells in culture and was carried out essentially according to the manufacturer's recommendations.
# (§3) Cells are suspended in 15 mL of their respective media and are enumerated. They are then diluted in their media in order to obtain: • 2500 cells per 90 μL per well for MRC5 cells • 5000 cells per 90 μL per well for all other cell lines. Cells are then seeded in a 96 well plate, and incubated at least 4 hours in the incubator at 37° C. in 5% CO2.
# The molecules to be tested are diluted in DMEM with DMSO in order to obtain the following dilutions: • dilution at 250 μM/1% DMSO • dilution at 50 μM/1% DMSO • dilution at […] • dilution at 2 μM/1% DMSO • dilution at 400 nM/1% DMSO • dilution at 80 nM/1% DMSO For each well comprising 90 μL of cell suspension, 10 μL of a solution of the compound to be tested is added, with the 6 different concentrations. The plate is then incubated during 72 hours. One control plate is contacted with 10 μL of DMEM 1% DMSO, without compound to be tested. 50 μL of lysis buffer (test Vialight® lysis buffer) is added in each well of the control plate and the plate is incubated 10 minutes under hood.
# Then, 100 μL of test buffer (test Vialight® test buffer) is added in each well and the control plate is incubated during 2 minutes. The luminescence is read in each well. The mean luminescence for each type of cells is called T0.
# After the 72 h incubation, in order to determine the viability, 50 μL of lysis buffer (test Vialight® lysis buffer) is added in each well of the plates and the plates are incubated 10 minutes under hood.
# (§4) Then, 100 μL of test buffer (test Vialight® test buffer) is added in each well and the plates are incubated during 2 minutes. The luminescence is read in each well. For each type of cell, the mean luminescence in the well not containing the compound is called C72 and the mean luminescence in well containing a given concentration of a compound to be tested is called T72. For each dilution (concentration of compound to be tested), T0 and T72 values are compared.
# The graph is plotted for the different concentrations of compound and • GI50 (50% of growth inhibitory) is determined, this is the dose producing 50% of cell growth (intersection at Y=50); • TGI (total growth inhibitory) is determined on the graph, this is the dose producing the total arrest of the cell growth (intersection at Y=0); and • LC50 (50% of lethal concentration) is determined, this is the dose producing the death of 50% of the cells (intersection at Y=−50).
# Following the protocol described in Example 2C, different compounds according to the invention have been tested for their cytostatic and cytotoxic activities on mammalian cells in culture (specifically U937 cells).
# The GI50 (50% of growth inhibitory) has been determined for all the following compounds, i.e. the dose producing 50% of cell growth inhibition.
# Where the GI50 provided is in the form of a range, it means that multiple experiments, whose results fall within the range indicated, were performed. Otherwise, results of individual experiments are provided.
# [2] = system: lung, prostate, breast, colon, melanoma, and myeloid tumor cells; test: Inhibition of cell proliferation in vitro, panel of tumor cells (Example 3); assay type: cell-based; details: Homo sapiens; range over tumor cell lines, printed as 50 nM to 1 μM; 72 h; read-out: IC50s of growth inhibition
# Method: as §1, §2
# as §3, with “CO2. […]” for “CO2.”
# Then, 100 μL of test buffer (test Vialight® test buffer) is added in each well and the control plate is incubated during 2 minutes. The luminescence is read in each well. The mean luminescence for each type of cells is called T0. […]
# as §4, with “For each dilution (concentration of compound to be tested), T0 and T72 values are compared.” left out
# [3] = Viability (propidium iodide staining), MRC5; assay type: cell-based; details: human, MRC5 non-transformed fibroblasts, 500 nM
# Method: (§5) Propidium iodide (PI) cannot normally cross the cell membrane; it is thus excluded by viable cells but not from dying or dead cells, having a damaged membrane, where it intercalates into double-stranded nucleic acids and fluoresces when excited at 488 nm.
# (§6) The cells are pelleted by gentle centrifugation 1200 rpm/5 min/4° C., then the supernatant is discarded and replaced by 1 mL of fresh medium. One hundred microliters of propidium iodide (40 μg/mL) are added to 400 μL of the cell suspension in a FACS tube and viability is measured by flow cytometry as the percentage of cells whose fluorescence recorded on FL-3 channel is comprised between 0 and 2.
# (§7) Viability and cell cycle profile, tested with compound (01), at 500 nM: […]
# [4] = system: MRC5; test: Viability (propidium iodide staining), MRC5; assay type: cell-based; details: 500 nM
# Method: as §5, §6, §7
# [5] = Viability (propidium iodide staining), Jurkat; assay type: cell-based; details: human, Jurkat cells, 500 nM
# Method: as §5, §6, §7
# [6] = system: lymphoid and myeloid tumor cells; test: Viability and cell cycle profile, conclusion for lymphoid and myeloid tumor cells; assay type: cell-based; details: 500 nM; apoptotic cell cycle profile
# Method: as §5, §6
# The cells are pelleted by gentle centrifugation 1200 rpm/5 min/4° C., then the supernatant is discarded and the cells are fixed with 1 mL of PBS/Ethanol 70% overnight at −20° C. The tubes are then centrifuged during 5 minutes at 1200 rpm and the supernatant is removed. The pellet is then re-suspended in 450 μL of PBS before 50 μL of RNAse (1 mg/mL) and 5 μL of propidium iodide (2 mg/mL) are added. Each tube is left 30 minutes at 37° C. and immediately analysed by flow cytometry after incubation.
# as §7
smiles,measurement,setting,value
"COc1cc(NC(=S)NC(=O)/C=C/c2ccco2)ccc1-c1cc2ccccc2oc1=O [Compound 01, (2E)-3-(2-furyl)-N-({[3-methoxy-4-(2-oxo-2H-chromen-3-yl)phenyl]amino}carbonothioyl)acrylamide]",GI50,[1],59 to 200 nM
same,IC50,[2],50 to 1000 nM
same,"viability at 48 h, 0.5 µM",[3]; 48 h,94%
same,"viability at 72 h, 0.5 µM",[3]; 72 h,89%
same,Effect on control non-transformed cells (MRC5),[4],unaffected
same,"viability at 48 h, 0.5 µM",[5]; 48 h,4%
same,"viability at 72 h, 0.5 µM",[5]; 72 h,1%
same,Effect on lymphoid and myeloid tumor cells,[6],cytotoxic effect
